Measured values reported in patent US10793563B2, “GCN2 inhibitors and uses thereof” (Merck Patent GmbH, priority 2018, dated 2020).

What was measured:
GCN2 kinase = GCN2 kinase (Homo sapiens (Human), UniProt Q9P2K8); experiment: GCN2 Enzyme Inhibition Assay (Transcreener ADP2 fluorescence polarization); format: biochemical; conditions: 280 μM ATP, 200 μM (RS)7 peptide, 4 nM GCN2, 25° C.; for Ki: Ki(app)
Summary of the method: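 Transcreener ADP2 fluorescence polarization detection of ADP from 4 nM GCN2 with (RS)7 substrate in 25 mM Tris-HCl pH 7.5, 50 mM NaCl, 10 mM MgCl2, 1 mM DTT. Compound pre-incubated with enzyme 10 min at 25 °C; reaction started by ATP, run 1 h at 25 °C. IC50 and Ki(app) by tight-binding fit.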

[1] = molecular target: intracellular GCN2 (phosphorylation of the GCN2 substrate eIF2α) (Homo sapiens (Human), UniProt Q9P2K8); experiment: GCN2 Cellular Inhibition Assay (AlphaScreen SureFire P-eIF2α Ser51, borrelidin-treated U2OS cells); format: cell-based; conditions: 10 μM borrelidin, 1 h, phosphorylated eIF2α Ser51, read-out: GCN2 Biomarker (IC50)
Sequence of intracellular GCN2 (phosphorylation of the GCN2 substrate eIF2α) (Q9P2K8 whole entry): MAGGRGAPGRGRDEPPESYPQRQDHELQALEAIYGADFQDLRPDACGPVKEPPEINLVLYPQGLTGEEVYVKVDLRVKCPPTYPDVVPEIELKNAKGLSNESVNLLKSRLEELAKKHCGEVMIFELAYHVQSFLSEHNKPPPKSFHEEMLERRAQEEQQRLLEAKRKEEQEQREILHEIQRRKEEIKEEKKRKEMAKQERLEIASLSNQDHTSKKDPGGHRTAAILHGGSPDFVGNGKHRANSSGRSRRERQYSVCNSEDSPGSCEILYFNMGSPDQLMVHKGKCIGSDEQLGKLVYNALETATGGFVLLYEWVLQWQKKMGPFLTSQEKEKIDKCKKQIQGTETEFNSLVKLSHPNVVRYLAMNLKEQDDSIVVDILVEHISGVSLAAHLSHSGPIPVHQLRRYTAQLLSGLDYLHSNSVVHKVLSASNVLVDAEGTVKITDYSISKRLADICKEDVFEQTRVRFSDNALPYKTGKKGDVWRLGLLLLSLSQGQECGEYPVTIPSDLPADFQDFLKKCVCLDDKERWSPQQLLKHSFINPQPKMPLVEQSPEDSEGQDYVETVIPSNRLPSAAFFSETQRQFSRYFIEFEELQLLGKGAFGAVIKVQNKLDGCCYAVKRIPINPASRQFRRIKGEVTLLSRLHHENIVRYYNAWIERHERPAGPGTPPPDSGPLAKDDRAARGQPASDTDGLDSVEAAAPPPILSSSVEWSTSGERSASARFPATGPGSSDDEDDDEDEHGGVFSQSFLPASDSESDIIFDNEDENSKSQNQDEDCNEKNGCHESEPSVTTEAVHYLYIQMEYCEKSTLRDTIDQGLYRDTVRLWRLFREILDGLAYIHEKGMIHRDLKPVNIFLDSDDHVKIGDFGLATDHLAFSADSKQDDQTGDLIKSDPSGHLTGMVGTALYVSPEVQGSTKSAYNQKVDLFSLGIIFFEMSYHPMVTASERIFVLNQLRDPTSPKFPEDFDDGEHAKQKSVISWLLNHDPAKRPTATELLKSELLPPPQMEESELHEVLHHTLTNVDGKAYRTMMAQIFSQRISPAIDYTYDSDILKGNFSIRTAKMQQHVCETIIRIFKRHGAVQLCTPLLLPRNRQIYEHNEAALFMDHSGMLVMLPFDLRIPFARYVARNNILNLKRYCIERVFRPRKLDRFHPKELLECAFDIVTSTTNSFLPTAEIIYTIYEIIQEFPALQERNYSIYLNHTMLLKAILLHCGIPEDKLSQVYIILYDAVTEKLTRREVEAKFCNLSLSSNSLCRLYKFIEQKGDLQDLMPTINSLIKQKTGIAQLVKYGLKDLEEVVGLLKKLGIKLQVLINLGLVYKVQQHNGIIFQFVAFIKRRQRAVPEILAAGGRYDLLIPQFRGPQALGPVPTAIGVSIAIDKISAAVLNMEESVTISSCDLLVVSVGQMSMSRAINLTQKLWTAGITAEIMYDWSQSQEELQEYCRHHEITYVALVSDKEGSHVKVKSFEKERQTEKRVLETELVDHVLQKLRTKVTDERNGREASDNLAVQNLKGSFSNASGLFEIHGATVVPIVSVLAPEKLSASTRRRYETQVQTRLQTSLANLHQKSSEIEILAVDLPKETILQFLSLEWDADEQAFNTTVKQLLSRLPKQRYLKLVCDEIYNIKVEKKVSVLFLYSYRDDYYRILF
Summary of the method: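 U2OS cells adhered overnight, then given compound (top 40 μM, 4-fold serial dilutions) plus 10 μM borrelidin for 1 h at 37 °C. Lysates assayed for eIF2α phospho-Ser51 by AlphaScreen SureFire; % inhibition versus borrelidin-only wells.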

Sequence of GCN2 kinase (Q9P2K8 whole entry): as above

| Structure (SMILES) | IC50 (GCN2 kinase) [µM] | IC50 [1] [µM] | Ki (GCN2 kinase) [µM] |
| --- | --- | --- | --- |
| C[C@@H]1C[C@@H](NC(=O)OC(C)(C)C)CN(c2ccnc(-c3cnc4ccc(Cl)cn34)n2)C1 [I-252, tert-butyl ((3R,5R)-1-(2-(6-chloroimidazo[1,2-a]pyridin-3-yl)pyrimidin-4-yl)-5-methylpiperidin-3-yl)carbamate] | 0.1 to 1 | 0.5 to 5 |  |
| OCC1(c2ccccc2)CCCN(c2ccnc(-c3cnc4cc(F)c(Cl)cn34)n2)C1 (centres unmarked) [I-85, {1-[2-(6-Chloro-7-fluoro-imidazo[1,2-a]pyridin-3-yl)-pyrimidin-4-yl]-3-phenyl-piperidin-3-yl}-methanol] |  | > 5 | 0.1 to 1 |
| Fc1ccc(CN2CCN(c3ccnc(-c4cnc5ccc(C(F)(F)F)cn45)n3)CC2c2cn[nH]c2)cc1F (centres unmarked) [I-450, 3-(4-(4-(3,4-difluorobenzyl)-3-(1H-pyrazol-4-yl)piperazin-1-yl)pyrimidin-2-yl)-6-(trifluoromethyl)imidazo[1,2-a]pyridine] | 0.01 to 0.1 | < 0.5 |  |
| CP(C)(=O)C1CC(c2cn[nH]c2)CN(c2ccnc(-c3cnc4ccc(Cl)cn34)n2)C1 (centres unmarked) [I-29, 6-Chloro-3-[4-[3-dimethylphosphoryl-5-(1H-pyrazol-4-yl)-1-piperidyl]pyrimidin-2-yl]imidazo[1,2-a]pyridine] |  | > 5 | < 0.01 |
| FC(F)(F)c1ccc2ncc(-c3nccc(N4CCN[C@@H](c5cn[nH]c5)C4)n3)n2c1 [I-533, (S)-3-(4-(3-(1H-pyrazol-4-yl)piperazin-1-yl)pyrimidin-2-yl)-6-(trifluoromethyl)imidazo[1,2-a]pyridine] | < 0.01 | < 0.5 |  |
| CC1CN(c2ccnc(-c3cnc4ccc(C(F)(F)F)cn34)n2)CC(C)N1CC#N (centres unmarked) [I-393, 2-(2,6-dimethyl-4-(2-(6-(trifluoromethyl)imidazo[1,2-a]pyridin-3-yl)pyrimidin-4-yl)piperazin-1-yl)acetonitrile] | 0.1 to 1 | 0.5 to 5 |  |
| CS(=O)(=O)NC1CC(C(F)(F)F)CN(c2nccc(-c3cnc4ccc(C(F)F)cn34)n2)C1 (centres unmarked) [I-525, N-(1-(4-(6-(difluoromethyl)imidazo[1,2-a]pyridin-3-yl)pyrimidin-2-yl)-5-(trifluoromethyl)piperidin-3-yl)methanesulfonamide] | 0.01 to 0.1 | 0.5 to 5 |  |
| CC1[C@@H](c2cn[nH]c2)NCCN1c1ccnc(-c2cnc3ccc(C(F)(F)F)cn23)n1 (stereo partly drawn) [I-310, 3-(4-((3R)-2-methyl-3-(1H-pyrazol-4-yl)piperazin-1-yl)pyrimidin-2-yl)-6-(trifluoromethyl)imidazo[1,2-a]pyridine] | < 0.01 | < 0.5 |  |
| FC(F)(F)c1ccc2ncc(-c3nccc(N4CCN(C[C@H]5CC56CCOCC6)[C@H](c5cn[nH]c5)C4)n3)n2c1 [I-523, 3-(4-((R)-4-(((S)-6-oxaspiro[2.5]octan-1-yl)methyl)-3-(1H-pyrazol-4-yl)piperazin-1-yl)pyrimidin-2-yl)-6-(trifluoromethyl)imidazo[1,2-a]pyridine] | 0.01 to 0.1 | < 0.5 |  |
| Cc1cc(-c2cnc3ccc(Cl)cn23)nc(N2C[C@@H](C)O[C@@H](c3c[nH]nc3C)C2)n1 [I-222, (2R,6S)-4-(4-(6-chloroimidazo[1,2-a]pyridin-3-yl)-6-methylpyrimidin-2-yl)-2-methyl-6-(5-methyl-1H-pyrazol-4-yl)morpholine] | 0.01 to 0.1 | < 0.5 |  |
| CC1CCC(C(=O)O)CN1c1ccnc(-c2cnc3ccc(C(F)(F)F)cn23)n1 (centres unmarked) [I-201, 6-methyl-1-(2-(6-(trifluoromethyl)imidazo[1,2-a]pyridin-3-yl)pyrimidin-4-yl)piperidine-3-carboxylic acid] | 0.01 to 0.1 | 0.5 to 5 |  |
| CC1(C)C[C@H]1CN1CCN(c2ccnc(-c3cnc4ccc(C(F)(F)F)cn34)n2)C[C@H]1c1cn[nH]c1 [I-526, 3-(4-((R)-4-(((R)-2,2-dimethylcyclopropyl)methyl)-3-(1H-pyrazol-4-yl)piperazin-1-yl)pyrimidin-2-yl)-6-(trifluoromethyl)imidazo[1,2-a]pyridine] | 0.01 to 0.1 | < 0.5 |  |
| FC(F)(F)c1ccc2ncc(-c3cccc(N4CCOC(c5cn[nH]c5)C4)n3)n2c1 (centres unmarked) [I-12, 2-(1H-Pyrazol-4-yl)-4-[6-[6-(trifluoromethyl)imidazo[1,2-a]pyridin-3-yl]-2-pyridyl]morpholine] |  | < 0.5 | < 0.01 |
| C[C@@H]1CN(c2nccc(-c3cnc4ccc(Cl)cn34)n2)C[C@@H](c2cn[nH]c2)O1 [I-251, (2R,6R)-4-(4-(6-chloroimidazo[1,2-a]pyridin-3-yl)pyrimidin-2-yl)-2-methyl-6-(1H-pyrazol-4-yl)morpholine] | 0.01 to 0.1 | 0.5 to 5 |  |
| CS(=O)(=O)NC[C@@H]1CN(c2nsc(-c3cnc4ccc(C(F)(F)F)cn34)n2)CCO1 [I-109, (S)—N-((4-(5-(6-(trifluoromethyl)imidazo[1,2-a]pyridin-3-yl)-1,2,4-thiadiazol-3-yl)morpholin-2-yl)methyl)methanesulfonamide] |  | 0.5 to 5 | 0.01 to 0.1 |
| FC(F)(F)c1ccc2ncc(-c3ccnc(N4CCN(C[C@H]5CCCOC5)[C@H](c5cn[nH]c5)C4)n3)n2c1 [I-545, 3-(2-((R)-3-(1H-pyrazol-4-yl)-4-(((R)-tetrahydro-2H-pyran-3-yl)methyl)piperazin-1-yl)pyrimidin-4-yl)-6-(trifluoromethyl)imidazo[1,2-a]pyridine] | < 0.01 | < 0.5 |  |
| C[C@H](NS(C)(=O)=O)[C@H]1[C@@H](C)N(c2ccnc(-c3cnc4ccc(C(F)(F)F)cn34)n2)CCN1C1CC1 [I-507, N—((S)-1-((2R,3R)-1-cyclopropyl-3-methyl-4-(2-(6-(trifluoromethyl)imidazo[1,2-a]pyridin-3-yl)pyrimidin-4-yl)piperazin-2-yl)ethyl)methanesulfonamide] | 0.1 to 1 | 0.5 to 5 |  |
| CS(=O)(=O)N1CC2(CN(c3ccnc(-c4cnc5ccc(C(F)(F)F)cn45)n3)CCO2)C1 [I-447, 2-(methylsulfonyl)-8-(2-(6-(trifluoromethyl)imidazo[1,2-a]pyridin-3-yl)pyrimidin-4-yl)-5-oxa-2,8-diazaspiro[3.5]nonane] | 0.01 to 0.1 | 0.5 to 5 |  |
| O=C(c1c[nH]cn1)N1CCN(c2ccnc(-c3cnc4ccc(C(F)(F)F)cn34)n2)CC1c1cn[nH]c1 (centres unmarked) [I-445, (2-(1H-pyrazol-4-yl)-4-(2-(6-(trifluoromethyl)imidazo[1,2-a]pyridin-3-yl)pyrimidin-4-yl)piperazin-1-yl)(1H-imidazol-4-yl)methanone] | 0.01 to 0.1 | 0.5 to 5 |  |
| CS(=O)(=O)NC[C@@H]1CN(c2nc(-c3cnc4ccc(C(F)(F)F)cn34)cs2)CCO1 [I-111, (S)—N-((4-(4-(6-(trifluoromethyl)imidazo[1,2-a]pyridin-3-yl)thiazol-2-yl)morpholin-2-yl)methyl)methanesulfonamide] |  | 0.5 to 5 | 0.01 to 0.1 |
| c1ccc(Oc2ccc3ncc(-c4nccc(N5CCC[C@@H](c6cn[nH]c6)C5)n4)n3c2)cc1 [I-399] | 0.01 to 0.1 | 0.5 to 5 |  |
| COc1cc(-c2cnc3ccc(Cl)cn23)nc(N2C[C@H](C)C[C@@H](c3cn[nH]c3)C2)n1 [I-280, 6-chloro-3-(6-methoxy-2-((3R,5S)-3-methyl-5-(1H-pyrazol-4-yl)piperidin-1-yl)pyrimidin-4-yl)imidazo[1,2-a]pyridine] | 0.01 to 0.1 | < 0.5 |  |
| CC1CC(N=S(C)(C)=O)CN(c2ccnc(-c3cnc4ccc(C(F)(F)F)cn34)n2)C1 (centres unmarked) [I-32, dimethyl((5-methyl-1-(2-(6-(trifluoromethyl)imidazo[1,2-a]pyridin-3-yl)pyrimidin-4-yl)piperidin-3-yl)imino)-λ^6-sulfanone] |  | 0.5 to 5 | 0.01 to 0.1 |
| Cc1[nH]ncc1C1NCCN(c2ccnc(-c3cnc4ccc(C(F)(F)F)cn34)n2)C1C (centres unmarked) [I-321, 3-(4-(2-methyl-3-(5-methyl-1H-pyrazol-4-yl)piperazin-1-yl)pyrimidin-2-yl)-6-(trifluoromethyl)imidazo[1,2-a]pyridine] | 0.01 to 0.1 | 0.5 to 5 |  |
| C[C@H]1CN(c2nc(-c3cnc4ccc(C(F)F)cn34)ns2)C[C@@H](CNS(C)(=O)=O)C1(F)F [I-103, N-(((3S,5S)-1-(3-(6-(difluoromethyl)imidazo[1,2-a]pyridin-3-yl)-1,2,4-thiadiazol-5-yl)-4,4-difluoro-5-methylpiperidin-3-yl)methyl)methanesulfonamide] |  | < 0.5 | < 0.01 |
| Cc1[nH]ncc1[C@@H]1[C@H](C)N(c2ccnc(-c3cnc4ccc(C(F)(F)F)cn34)n2)CCN1C1COC1 [I-365] | 0.1 to 1 | 0.5 to 5 |  |
| Cc1[nH]ncc1[C@H]1C[C@@H](N=S(C)(C)=O)CN(c2ccnc(-c3cnc4ccc(C(F)(F)F)cn34)n2)C1 [I-342, dimethyl(((3R,5R)-5-(5-methyl-1H-pyrazol-4-yl)-1-(2-(6-(trifluoromethyl)imidazo[1,2-a]pyridin-3-yl)pyrimidin-4-yl)piperidin-3-yl)imino)-λ6-sulfanone] | 0.01 to 0.1 | < 0.5 |  |
| CC1CC(C(N)=O)C(C)N(c2ccnc(-c3cnc4ccc(Cl)cn34)n2)C1 (centres unmarked) [I-50, 1-[2-(6-Chloroimidazo[1,2-a]pyridin-3-yl)pyrimidin-4-yl]-2,5-dimethyl-piperidine-3-carboxamide] |  | 0.5 to 5 | < 0.01 |
| NC(=O)C1CN(c2ccnc(-c3cnc4ccc(C(F)(F)F)cn34)n2)CC(F)(F)C1 (centres unmarked) [I-202, 5,5-Difluoro-1-[2-(6-trifluoromethyl-imidazo[1,2-a]pyridin-3-yl)-pyrimidin-4-yl]-piperidine-3-carboxylic acid amide] | < 0.01 | < 0.5 | < 0.01 |
